US20110033516A1, “METHODS AND COMPOSITIONS FOR BONE HEALING BY PERIOSTIN” (Medical University of South Carolina, priority 2009, published 2011)
“Also recorded” adds a separate entry of the source.

B1: periostin: Full length recombinant mouse periostin (a.k.a. OSF-2) purchased from R&D systems; secreted 90 kDa matricellular protein (protein, UniProt Q62009 1-838, looked up)
chain: MVPLLPLYALLLLFLCDINPANANSYYDKVLAHSRIRGRDQGPNVCALQQILGTKKKYFSSCKNWYQGAICGKKTTVLYECCPGYMRMEGMKGCPAVMPIDHVYGTLGIVGATTTQHYSDVSKLREEIEGKGSYTYFAPSNEAWENLDSDIRRGLENNVNVELLNALHSHMVNKRMLTKDLKHGMVIPSMYNNLGLFINHYPNGVVTVNCARVIHGNQIATNGVVHVIDRVLTQIGTSIQDFLEAEDDLSSFRAAAITSDLLESLGRDGHFTLFAPTNEAFEKLPRGVLERIMGDKVASEALMKYHILNTLQCSEAITGGAVFETMEGNTIEIGCEGDSISINGIKMVNKKDIVTKNGVIHLIDEVLIPDSAKQVIELAGKQQTTFTDLVAQLGLASSLKPDGEYTLLAPVNNAFSDDTLSMDQRLLKLILQNHILKVKVGLSDLYNGQILETIGGKQLRVFVYRTAICIENSCMVRGSKQGRNGAIHIFREIIQPAEKSLHDKLRQDKRFSIFLSLLEAADLKDLLTQPGDWTLFAPTNDAFKGMTSEERELLIGDKNALQNIILYHLTPGVYIGKGFEPGVTNILKTTQGSKIYLKGVNETLLVNELKSKESDIMTTNGVIHVVDKLLYPADIPVGNDQLLELLNKLIKYIQIKFVRGSTFKEIPMTVYTTKIITKVVEPKIKVIQGSLQPIIKTEGPAMTKIQIEGDPDFRLIKEGETVTEVIHGEPVIKKYTKIIDGVPVEITEKQTREERIITGPEIKYTRISTGGGETGETLQKFLQKEVSKVTKFIEGGDGHLFEDEEIKRLLQGDTPAKKIPANKRVQGPRRRSREGRSQ
modifications: full-length
notes: Full length recombinant mouse periostin (a.k.a. OSF-2) purchased from R&D systems; secreted 90 kDa matricellular protein
B2: TGFβ3: exogenous factor (transforming growth factor) tested in the 3D collagen gel migration assay (protein, UniProt P10600 301-412, looked up)
Transforming growth factor …: ALDTNYCFRNLEENCCVRPLYIDFRQDLGWKWVHEPKGYYANFCSGPCPYLRSADTTHSTVLGLYNTLNPEASASPCCVPQDLEPLTILYYVGRTPKVEQLSNMVVKSCKCS

What was measured:
ROS cell line = experiment: Cell adhesion assay, ROS cell line; assay type: cell-based, rat; details: assayed in triplicate, 1% BSA negative control
Procedure: FIGS. 16A-B Cell adhesion assays. (A) Each of the 55 peptides (20 mers) of periostin was assayed in triplicate by a cell adhesion assay using the ROS cell line. Collagen I and poly-L-lysine were used as positive controls, whereas 1% BSA coated wells were negative controls for non-specific binding. […] These subtle differences may be attributed to different integrin profiles of the two cell types.
The 55 peptides in Table 1 have been studied in a cell adhesion assay using the ROS cell line.
These assays will be performed as described. Briefly, titrated amounts of purified matrix protein (or peptides or fragments) ranging from 10 ng/ml to 100 μg/ml will be used to coat the wells of a 96-well dish. Poly-L-lysine (1.5 μg/ml) and 1% BSA will be used as positive and negative controls for adhesion, respectively. The wells are blocked with 1% BSA to coat any of the charged plastic surface not coated by the substrates. Finally the cells are allowed to adhere to the substrates at 37° C. for 1-2 hours depending on cell type. The cells are then gently washed to remove those that are not adherent and retain those that are adherent. Then the cells remaining are exposed to 4% PFA to fix them and they are subsequently stained with 0.25% crystal violet for 30 min. Plates are washed and air-dried. At this point the cells can be visualized and images digitally captured. The amount of stain on the cells is solubilized by 2% sodium deoxycholate for 10 min. and absorbance is measured at 540 nm wavelength. This gives quantitative data directly related to the number of adherent cells. Another assessment can be done by digitally capturing the cells in each well and analyzing their spreading by morphometric analysis.

[1] = tested on: fibula osteotomy in the periostin null mouse; experiment: Fibula osteotomy model of bone fracture healing, X-ray analysis; assay type: in vivo; details: three weeks after fibula osteotomy, hydrogel delivery at the break point
Procedure: FIGS. 8A-C Periostin KO mice have defects in bone regeneration. X-ray analyses of bone healing three weeks after fibula osteotomies. […] (B,C) Fibula osteotomies were performed in the periostin null background and analyzed by X-ray three weeks later. In the absence of periostin there is no apparent callus formed and no fibula fusion (C).
To examine the role of periostin as a mediator of bone healing following injury, a novel in vivo murine fibula osteotomy model was developed (FIGS. 6A-B). The generation of this model system in the mouse has significant advantages over the more standard tibia and femur bone break models. Currently, the main disadvantage of the tibia and femur models is their necessity for an intermedullary stabilizer (i.e., metal rods) due to these bones being weight bearing. These rods make various analyses such microCT, MTS and histological examination either exceedingly difficult or totally impossible. Because the fibula is a non-weight bearing bone, intermedullary stabilization is not required. As such, analyses such as microCT, MTS and histology are more easily and reproducibly performed in the fibula osteotomy model. […]

[2] = tested on: Mesenchyme from periostin null mice; experiment: Hanging drop culture of periostin null mesenchyme, collagen expression by immunoblotting; assay type: cell-based, mouse; details: purified periostin protein 10 μg/ml in culture medium, 7 days
Procedure: FIGS. 3A-B Periostin regulates collagen synthesis. Mesenchyme from periostin null mice was placed in hanging drop cultures and incubated with either purified periostin protein (10 μg/ml) or PBS. Mesenchyme from wild-type mice was used as control tissue. After 7 days, tissues were harvested and analyzed for periostin and collagen expression by immunoblotting. […] Actin is used for protein normalization. (B) Graphical representation of Western analyses presented in panel A obtained from densitometric analyses using NIH image software. Values obtained were compared against wild-type values (baseline) and represented as relative percent change. * denotes p<0.05.
Studies were carried out to examine the affect of periostin on fibroblast differentiation. Through these studies, it was ascertained that periostin was a crucial regulator of collagen I synthesis and maturation (fibrillogenesis) and promoted fibroblast differentiation (FIGS. 3A-B). […] Within the bone, expression of these matrix components was seen primarily in the periosteal cells. To ascertain the functional significance of periostin on bone growth, gene targeted mice were generated. These mice are viable and able to reproduce. However, significant defects have been observed in the material properties of various connective tissues. […]

rat osteoblast cells = experiment: Standard wounding / scratch migration assay; assay type: cell-based; details: dishes coated with plastic, collagen, or collagen plus titrating amounts of periostin; BMP-2 titrated; up to 48 hours
Procedure: Tissue culture dishes were coated with either collagen, or collagen with titrating amounts of periostin. Cells were plated and allowed to adhere for 24 hours. A standard “wounding” or “scratch assay” was performed and measurements of cell migration into the scratch area were obtained.
The ability of periostin to promote migration of osteoblast cells in culture was ascertained utilizing a standard “wounding” assay. For this, a monolayer of rat osteoblast cells was plated on either plastic, collagen or collagen plus titrating amounts of periostin. A small scratch was made (with a P200 tip) through the middle of the monolayer and the cells were allowed to migrate into the “wounded” area for up to 48 hours.

fibroblasts = experiment: Collagen deposition by fibroblasts after periostin exposure; assay type: cell-based; details: following periostin exposure/incubation
primary fibroblasts = experiment: 3D collagen gel migration assay with hanging drop aggregates; assay type: cell-based; details: aggregates of 50,000 cells/20 μl on collagen I hydrogels (1.5 mg/ml), exogenous factors
Description: FIG. 11 Periostin promotes migration of primary fibroblasts in 3D collagen gel assays. […] Pictures above the graph lines show representative images of the stimulated cultures with the cell migratory boundaries outlined.
The 3-D migration and invasion assay will use the same cells but aggregate them using a hanging drop method overnight. […] The number of cells that have migrated out from the aggregate and the distance migrated on the top of the gel are the first order parameters of migration.

Molecule | cell adhesion (binding) to peptide (ROS cell line) | further results
HSHMVNKRMLTKDLKHGMVI (listed as Mus musculus) [Peptide 11, murine periostin peptide] | significant binding | 
DQRLLKLILQNHILKVKVGL (listed as Mus musculus) [Peptide 28, murine periostin peptide] | significant binding | 
IGCEGDSISINGIKMVNKKD (listed as Mus musculus) [Peptide 22, murine periostin peptide] | significant binding | 
RGLENNVNVELLNALHSHMV (listed as Mus musculus) [Peptide 10, murine periostin peptide] | significant binding | 
HSRIRGRDQGPNVCALQQIL (listed as Mus musculus) [Peptide 2, murine periostin peptide] | significant binding | 
HGMVIPSMYNNLGLFINHYP (listed as Mus musculus) [Peptide 12, murine periostin peptide] | significant binding | 
TIGGKQLRVFVYRTAICIEN (listed as Mus musculus) [Peptide 30, murine periostin peptide] | significant binding | 
B1 |  | bone healing (callus formation, fibula fusion) by X-ray [1]: “rescued” the null phenotype; also recorded: pronounced healing is evident; expression of collagen Ia1 and Ia2 [2]: induces expression of collagen Ia1 and Ia2; cell migration into the scratch area (rat osteoblast cells): highest degree of migration; also recorded: most potent stimulation of migration; collagen deposition by fibroblasts (fibroblasts): increased in a dose-dependent manner; fold-change in area of migration (primary fibroblasts): highest degree of migration
B2 |  | fold-change in area of migration (primary fibroblasts): promoted migration
